Laboratory results published in patent EP2932958A1, “COSMETIC AND PHARMACEUTICAL APPLICATIONS OF N-ACETYLHYDROXYPROLINE” (Beiersdorf AG, priority 2007, dated 2008).

How the values were obtained:
[1] = target: T1, BSA (Bos taurus, UniProt P02769); experiment: Inhibition of CML glycation of BSA with DHA, dot-blot (part B); assay type: biochemical, Bovine; details: BSA 1%, DHA 1%, 1 day at 50°C; series I 0.17 % and II 9.82 mM of inhibitor
Method: Samples (A-F) were incubated for 1 day at 50°C and analysed for CML-content using the dot-blot approach set forth above in A. The dot-blot results are shown in Figure 11.
(§1) The samples had the following composition: • A: only BSA (1%) • B: BSA (1%) with DHA (1%) • C: BSA (1%) with Hydroxyproline and DHA (1 %) • D: BSA (1%) with N-Acetylhydroxyproline (NAHP) and DHA (1%) • E: BSA (1%) with Proline and DHA (1%) • F: BSA (1%) with Acetylproline and DHA (1%)
(§2) Each sample (A-F) was tested twice (I+II) with the difference that I. was conducted with 0.17 % of each inhibitor (Proline, Hydroxyproline, Acetylproline or NAHP) and II. was conducted with 9.82 mM of each inhibitor.
The intensity of each dot was quantified. The results are represented in Figure 12.

[2] = system: age spots (senile lentigo); experiment: Lightening effect on undesired skin pigmentation (age spots); assay type: in vivo; details: after seven days
Text: Undesired and uneven skin pigmentation such as, e.g., age spots (senile lentigo) are a major problem associated with the aging of skin and skin appendages. N-acetylhydroxyproline has an effect with respect to the lightening of age spots.

[3] = target: T1, BSA; experiment: Inhibition of BSA-CML formation with glucose, dot-blot with CML-specific antibody (part A); assay type: biochemical, Bovine; details: BSA 1.035 %, glucose 1 M, 7 days at 50°C, various amounts of NAHP
Method: BSA samples of were incubated with glucose for 7 days at 50°C in the presence of various amounts of NAHP and thereafter analysed for their CML-content using a dot-blot approach. An antibody which is specific for the CML modifications of immobilised proteins (in this case BSA) on a nitrocellulose membrane was used to make the CML modifications visible. […] The stronger the intensity of each dot in the above series, the higher is the concentration of CML-modifications on the BSA. The control consists of BSA without glycation agent (glucose). Each single dot was quantified for its intensity leading to the results which are shown diagrammatically in Figure 10.
The concentration of BSA was 1.035 % (10.35 mg/ml) and the concentration of glucose in each sample was 1 M.

[4] = target: T1, BSA; experiment: AGE-fluorescence of BSA incubated with DHA (part B, samples II); assay type: biochemical, Bovine; details: BSA 1%, DHA 1%
Method: as §1, §2
Samples A-F (II) were further tested regarding the inhibition of the formation of other AGEs (different from CML). To this end, the AGE-fluorescence at λex=370 nm and λem= 440 nm was measured. The wavelengths used are those proposed by Bellmunt et al., Lung 173 (1995), 177-85 and used by many laboratories.

[5] = target: T1, BSA; experiment: BSA-Glucose Assay of AGE formation at pH 5 and pH 7 (part F); assay type: biochemical, Bovine; details: BSA with glucose, 7 days at 50°C
Method: As acetylated compounds result in a decrease in the pH, the effect of NAHP was compared at two different pH values (pH 5 and pH 7). As described in Section A, the BSA-Glucose Assay was used. To stabilize the pH the adjustment was performed after the addition of the inhibitor.
After incubation of BSA with glucose for 7 days at 50°C a significant increase in AGE fluorescence is detectable. An acidic environment (pH 5) results in a much less intensive AGE-formation in the BSA-Glucose Assay than a neutral, environment (pH 7).

[6] = system: Primary human fibroblasts; experiment: CML formation in fibroblasts after glyoxal treatment (FACS, immunoblot, immunoprecipitation); assay type: cell-based; details: 200 µM glyoxal for 7 days
Method: To test the effect of CML-modifications on vimentin function cells were treated with glyoxal to induce CML-vimentin modifications in fibroblasts. Primary human fibroblasts were incubated with 200 µM glyoxal for 7 days to enhance CML formation^18,20,28. […] The higher rate of CML-vimentin formation leads to a predominant modification of vimentin in the linker region of the molecule.
Proteins from cell extracts (20 µg per lane) were separated by gel electrophoresis under denaturing conditions on 10% SDS-PAGE gels. Immunoblotting was performed following standard procedures using chemiluminescence methods. […] Signals were quantified using LumiAnalyst (Boehringer Mannheim, Germany). […]
Fibroblasts were incubated for 7 days with 200 µM glyoxal^18,20. […] After 3 washing steps with PBS the fluorescence was measured using FACSCanto (BD Biosciences, San Jose, USA) and analysed by the software BD FACSDiva 4.0.
Human fibroblasts were incubated for 7 days with 200 µM glyoxal^18,20 and tested for CML formation using FACS analysis as described above (a). Quantitative analysis of (a) is shown in panel (b, right columns) together with quantitative analysis of dot-blots as described in the legend to Fig.4 and the Methods section (b, left columns). […] Additionally, the two cell populations were lysed, vimentin was immunoprecipitated and analysed for CML-modification by SDS-page and immunoblotting. […]

[7] = system: human fibroblasts; experiment: Vimentin redistribution to a perinuclear aggregate after glyoxal treatment (immunofluorescence microscopy); assay type: cell-based
Method: To determine whether the loss of contractile capacity is the result of a CML-induced redistribution of vimentin, immunofluorescence microscopic analysis of fibroblasts with and without glyoxal treatment were employed. […] About 90% of the fibroblasts were affected after incubation for 7 days.
For immunostaining, cells were fixed in 3% paraformaldehyde for 30 minutes at room temperature, washed with PBS and permeabilized with 0.5% Triton X-100 for 5 minutes; after which the cells were blocked with 3% BSA for 30 minutes. Cells were then incubated with primary antibody in 1% BSA for 1 hour. […] Cells were then incubated for 1 hour with 1% BSA solution containing fluorescence-labelled secondary antibodies (AlexaFluor 488 chicken-anti-mouse IgG, AlexaFluor 594 donkey-anti-goat IgG, AlexaFluor 546 donkey-anti-goat IgG, Molecular Probes, Eugene, Oregon) at 1:1,000 to visualise the target protein and DAPI (Molecular Probes, Eugene, Oregon). After extensive washing with PBS fluorescence images were recorded on a fluorescence microscope (Olympus, Hamburg, Germany) with an attached […] camera. Confocal fluorescence images were recorded on LSM 510 Meta (Carl Zeiss, Jena, Germany). […]

[8] = system: human fibroblasts; experiment: Contraction capacity of fibroblasts in 3D free-floating collagen lattices; assay type: cell-based; details: glyoxal treated vs control fibroblasts, n=10, p=0.00056
Method: Further, normal fibroblasts were compared with fibroblasts with a higher CML-vimentin modification with respect to contractile capacities. The contractile capacity was determined using 3D free-floating collagen lattices^29,30.
100 mg Type I collagen (Sigma, St. Louis, USA) was dissolved at 4°C in 33.3 ml of 0.1% sterile acetic acid. 0.9 ml of 10x Hank's Buffer Salt Solution (Biochrom, Berlin, Germany) was added to 4.5 ml of this solution of collagen. 1.9 ml of 0.1% acetic acid was supplemented. NaOH was added dropwise to neutralise the solution. 1.5 x 10^5 fibroblasts were resuspended in 0.1 ml FCS and added to the solution for each ml of the gel. Casy Model TT (Schärfe System, Reutlingen, Germany) was used to count the fibroblasts and to control their viability. […] Diameters were measured at 0 hours and 24 hours. […]
Human fibroblasts were incubated for 7 days with 200 µM glyoxal^18,20 and tested for CML formation using FACS analysis as described above (a). Quantitative analysis of (a) is shown in panel (b, right columns) together with quantitative analysis of dot-blots as described in the legend to Fig.4 and the Methods section (b, left columns). […] Additionally, the two cell populations were lysed, vimentin was immunoprecipitated and analysed for CML-modification by SDS-page and immunoblotting. […] The contraction of these lattices was measured after 48h. […]

T1 sequence (P02769 25-607): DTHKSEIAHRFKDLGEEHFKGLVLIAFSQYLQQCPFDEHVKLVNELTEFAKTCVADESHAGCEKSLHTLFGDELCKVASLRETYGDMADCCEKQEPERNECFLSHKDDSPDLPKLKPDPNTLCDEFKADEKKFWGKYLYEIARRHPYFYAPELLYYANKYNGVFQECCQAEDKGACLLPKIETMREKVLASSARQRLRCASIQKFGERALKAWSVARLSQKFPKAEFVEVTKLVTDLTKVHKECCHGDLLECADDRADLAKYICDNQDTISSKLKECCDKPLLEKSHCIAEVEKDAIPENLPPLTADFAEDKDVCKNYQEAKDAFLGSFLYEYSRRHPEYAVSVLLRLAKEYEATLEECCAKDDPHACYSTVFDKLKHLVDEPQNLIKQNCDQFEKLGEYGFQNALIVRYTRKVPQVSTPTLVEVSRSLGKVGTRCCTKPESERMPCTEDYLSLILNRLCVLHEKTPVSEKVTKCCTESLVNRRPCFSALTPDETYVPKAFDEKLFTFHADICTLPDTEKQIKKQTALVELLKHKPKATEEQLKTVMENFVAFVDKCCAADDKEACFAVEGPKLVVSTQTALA

formation of fluorescent AGEs (AGE-fluorescence at λex=370 nm and λem= 440 nm) ([4]; 9.82 mM inhibitor (samples II))	brownish color of AGEs in the solution ([4]; samples II, digital picture)	AGE-formation (AGE fluorescence) at pH 5 ([5]; pH 5)	AGE-formation (AGE fluorescence) at pH 7 ([5]; pH 7)	Structure (SMILES)	inhibitory effect on the CML-glycation of BSA (dot-blot intensity) [1]	brightness of the treated age spot [2]	CML glycation of BSA (dot-blot intensity) [3]	CML as measured by FACS and immunoblot analysis [6]	fibroblasts showing perinuclear vimentin aggregate formation ([7]; 200 µM glyoxal for 2 days)	fibroblasts affected by vimentin aggregate formation ([7]; 200 µM glyoxal, incubation for 7 days)	contractile capacity of fibroblasts in 3D collagen lattices [8]
–	–	–	–	CC(=O)N1CCC[C@H]1C(=O)O [Acetylproline, reference compound]	potent inhibitor of the CML-glycation, but to a lesser extent than NAHP	–	–	–	–	–	–
inhibited	absent	reduced AGE-formation	reduced AGE-formation	CC(=O)N1C[C@H](O)C[C@H]1C(=O)O [NAHP, N-acetylhydroxyproline]	strongest inhibitory effect	increase in brightness	protective effect on BSA, preventing the CML glycation of this protein	–	–	–	–
–	–	–	–	O=CC=O [glyoxal]	–	–	–	massive increase of CML	About 70%	About 90%	significantly reduced
